Experimental data from patent US20100016274A1, “BETA-LACTAM CANNABINOID RECEPTOR MODULATORS” (priority 2006, published 2010).

Target: T1, cannabinoid receptor-1 (CB1), CB1R-containing cell membrane (Homo sapiens, UniProt P21554)
T1 construct: purchased Applied Cell Sciences Inc, Rockville, Md
Assay: biochemical
Type: binding
Details: IC50, displacement of 3H-CP55940 (1 nM) on CB1 receptors
Description: Method A using cell membranes. A compound is dissolved in DMSO and diluted to 1 M as a stock solution. […] A CB1R-containing cell membrane (Applied Cell Sciences Inc, Rockville, Md.) is diluted with binding buffer to a protein concentration of 28 μg/ml.
The mixture is incubated for 90 min at room temperature, then filtered through Whatman glass fiber C disc filter in a vacuum manifold. The filter is washed three times each with 2.5 ml cold wash buffer (binding buffer with only 2.5 mg/ml BSA). The vacuum-dried filter is transferred to a scintillation vial, treated with 3 ml Eco-Scint, and the radioactivity is read on a Beckman LS6500 scintillation counter from which an IC50 value is calculated. The corresponding Ki values are obtained from serial dilutions according to this method, and calculated through the use of a non-linear regression program (Graphpad Inc, San Diego, Calif.).

T1 sequence (P21554 whole entry, species assumed): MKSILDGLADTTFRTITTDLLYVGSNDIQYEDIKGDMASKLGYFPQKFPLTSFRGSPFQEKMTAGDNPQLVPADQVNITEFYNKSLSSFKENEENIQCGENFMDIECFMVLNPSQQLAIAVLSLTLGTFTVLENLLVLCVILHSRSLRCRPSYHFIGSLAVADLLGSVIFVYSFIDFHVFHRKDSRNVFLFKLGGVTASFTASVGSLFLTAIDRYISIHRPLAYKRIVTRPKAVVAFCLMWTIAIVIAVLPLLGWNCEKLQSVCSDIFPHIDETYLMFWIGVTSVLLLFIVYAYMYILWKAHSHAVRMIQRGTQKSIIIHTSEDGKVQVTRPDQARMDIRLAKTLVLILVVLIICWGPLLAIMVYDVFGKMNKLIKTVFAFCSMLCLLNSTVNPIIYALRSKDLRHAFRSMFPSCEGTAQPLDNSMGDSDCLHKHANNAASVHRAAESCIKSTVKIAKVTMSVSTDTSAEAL

| Molecule | IC50 |
| --- | --- |
| O=C(CC[C@@H](C(=O)N1CCN(C2CCCCC2)CC1)N1C(=O)[C@@H](N2C(=O)OC[C@@H]2c2ccccc2)[C@H]1/C=C/c1ccccc1)NCc1cccc(C(F)(F)F)c1F [Example 37T] | < 10 µM |
| O=C(NCCc1ccccc1)[C@H](CCC(=O)N1CCN(C2CCCCC2)CC1)N1C(=O)[C@@H](N2C(=O)OC[C@@H]2c2ccccc2)[C@H]1/C=C/c1ccccc1 [Example 38AC] | < 10 µM |
| COc1cc(CNC(=O)[C@H](CCC(=O)N2CCN(C3CCCCC3)CC2)N2C(=O)[C@@H](N3C(=O)OC[C@@H]3c3ccccc3)[C@H]2/C=C/c2ccccc2)cc(OC)c1 [Example 38AD] | < 10 µM |
| O=C(CN1C(=O)C(c2ccccc2)C1C=Cc1ccccc1)OCc1ccccc1 (stereo not drawn) [Example 70A, Benzyl 2-[3(S*)-2-Phenyl)-4(R*)-(2-styryl)azetidin-2-on-1-yl]acetate] | < 10 µM |
| O=C(CC[C@@H](C(=O)N1CCN(C2CCCCC2)CC1)N1C(=O)[C@@H](N2C(=O)OC[C@@H]2c2ccccc2)[C@H]1/C=C/c1ccccc1)NCCOc1ccccc1 [Example 37AB] | < 10 µM |
| O=C(CC[C@@H](C(=O)N1CCN(C2CCCCC2)CC1)N1C(=O)[C@@H](N2C(=O)OC[C@@H]2c2ccccc2)[C@H]1/C=C/c1ccccc1)NC1CCc2ccccc21 (stereo partly drawn) [Example 37V] | < 10 µM |
| O=C(NCc1ccc(C(F)(F)F)cc1)[C@H](CCC(=O)N1CCN(C2CCCCC2)CC1)N1C(=O)[C@@H](N2C(=O)OC[C@@H]2c2ccccc2)[C@H]1/C=C/c1ccccc1 [Example 38BH] | < 10 µM |
| O=C(C[C@@H](C(=O)NCc1cccc(C(F)(F)F)c1)N1C(=O)[C@@H](N2C(=O)OC[C@@H]2c2ccccc2)[C@H]1CCc1ccccc1)NC1CCN(Cc2ccccc2)CC1 [Example 53A, 2(S)-[[(1-Benzylpiperidin-4-yl)amino]carbonylmethyl]-2-[3 (S)-(4(S)-phenyloxazolidin-2-on-3-yl)-4(R)-(2-phenyleth-1-yl)azetidin-2-on-1-yl]acetic acid N-(3-trifluoromethylbenzyl)amide] | < 10 µM |
| COc1cccc(C(C)NC(=O)C(CCC(=O)N2CCN(C3CCCCC3)CC2)N2C(=O)C(N3C(=O)OCC3c3ccccc3)C2C=Cc2ccccc2)c1 (stereo not drawn) [Example 38AF] | < 10 µM |
| O=C(CC[C@@H](C(=O)N1CCN(C2CCCCC2)CC1)N1C(=O)[C@@H](N2C(=O)OC[C@@H]2c2ccccc2)[C@H]1/C=C/c1ccccc1)Nc1cccc(C(F)(F)F)c1 [Example 37AE] | < 10 µM |
| O=C(NCc1ccccc1C(F)(F)F)[C@H](CCC(=O)N1CCN(C2CCCCC2)CC1)N1C(=O)[C@@H](N2C(=O)OC[C@@H]2c2ccccc2)[C@H]1/C=C/c1ccccc1 [Example 38K] | ~10 µM |
| Cc1cccc(CNC(=O)[C@H](CCC(=O)N2CCN(C3CCCCC3)CC2)N2C(=O)[C@@H](N3C(=O)OC[C@@H]3c3ccccc3)[C@H]2/C=C/c2ccccc2)c1 [Example 38V] | < 10 µM |
| O=C(NCc1cccc2ccccc12)[C@H](CCC(=O)N1CCN(C2CCCCC2)CC1)N1C(=O)[C@@H](N2C(=O)OC[C@@H]2c2ccccc2)[C@H]1/C=C/c1ccccc1 [Example 38BL] | < 10 µM |
| O=C(NCc1cc(F)cc(F)c1)[C@H](CCC(=O)N1CCN(C2CCCCC2)CC1)N1C(=O)[C@@H](N2C(=O)OC[C@@H]2c2ccccc2)[C@H]1/C=C/c1ccccc1 [Example 38N] | ~10 µM |
| O=C(CC[C@@H](C(=O)N1CCN(C2CCCCC2)CC1)N1C(=O)[C@@H](N2C(=O)OC[C@@H]2c2ccccc2)[C@H]1/C=C/c1ccccc1)NCc1cc(Cl)ccc1Cl [Example 37O] | < 10 µM |
| COc1cccc([C@@H](C)NC(=O)[C@H](CCC(=O)N2CCN(C3CCCCC3)CC2)N2C(=O)[C@@H](N3C(=O)OC[C@@H]3c3ccccc3)[C@H]2/C=C/c2ccccc2)c1 [Example 38AE] | < 10 µM |
| O=C(NCc1cccc(C(F)(F)F)c1)[C@H](CCC(=O)N1CCN(C2CCCCC2)CC1)N1C(=O)[C@H](N2C(=O)OC[C@@H]2c2ccccc2)[C@@H]1/C=C/c1ccccc1 [Example 73C] | ~10 µM |
| O=C(NCc1ccc(F)c(Cl)c1)[C@H](CCC(=O)N1CCN(C2CCCCC2)CC1)N1C(=O)[C@@H](N2C(=O)OC[C@@H]2c2ccccc2)[C@H]1/C=C/c1ccccc1 [Example 38O] | < 10 µM |

| Molecule | IC50 |
| --- | --- |
| O=C(CC[C@@H](C(=O)N1CCN(C2CCCCC2)CC1)N1C(=O)[C@@H](N2C(=O)OC[C@@H]2c2ccccc2)[C@H]1/C=C/c1ccccc1)N1CCC(n2c(O)nc3ccccc32)CC1 [Example 37W] | < 10 µM |
| O=C(CC[C@@H](C(=O)N1CCN(C2CCCCC2)CC1)N1C(=O)[C@@H](N2C(=O)OC[C@@H]2c2ccccc2)[C@H]1/C=C/c1ccccc1)NCc1cc(C(F)(F)F)ccc1F [Example 37Q] | < 10 µM |
| O=C(CC[C@@H](C(=O)N1CCN(C2CCCCC2)CC1)N1C(=O)[C@@H](N2C(=O)OC[C@@H]2c2ccccc2)[C@H]1/C=C/c1ccccc1)NCc1ccc(F)c(C(F)(F)F)c1 [Example 37R] | < 10 µM |
| O=C(CC[C@@H](C(=O)N1CCN(C2CCCCC2)CC1)N1C(=O)[C@@H](N2C(=O)OC[C@@H]2c2ccccc2)[C@H]1/C=C/c1ccccc1)NCC1CCCCC1 [Example 37AA] | < 10 µM |
| O=C(NC1CCCc2ccccc21)[C@H](CCC(=O)N1CCN(C2CCCCC2)CC1)N1C(=O)[C@@H](N2C(=O)OC[C@@H]2c2ccccc2)[C@H]1/C=C/c1cccs1 (stereo partly drawn) [Example 72C] | ~10 µM |
| CC(C)NC(=O)CN1CCN(C(=O)CC[C@@H](C(=O)NCc2cccc(C(F)(F)F)c2)N2C(=O)[C@@H](N3C(=O)OC[C@@H]3c3ccccc3)[C@H]2/C=C/c2ccccc2)CC1 [Example 35AK] | < 10 µM |
| O=C(CC[C@@H](C(=O)N1CCN(C2CCCCC2)CC1)N1C(=O)[C@@H](N2C(=O)OC[C@@H]2c2ccccc2)[C@H]1/C=C/c1ccccc1)NCc1cccc(OC(F)(F)F)c1 [Example 37L] | < 10 µM |
| O=C(CC[C@@H](C(=O)N1CCN(CCC2CCCCC2)CC1)N1C(=O)[C@@H](N2C(=O)OC[C@@H]2c2ccccc2)[C@H]1/C=C/c1ccccc1)NCc1cc(F)cc(C(F)(F)F)c1 [Example 73E] | < 10 µM |
| COc1cccc(CNC(=O)[C@H](CCC(=O)N2CCN(C3CCCCC3)CC2)N2C(=O)[C@@H](N3C(=O)OC[C@@H]3c3ccccc3)[C@H]2/C=C/c2ccccc2)c1 [Example 38L] | ~10 µM |
| O=C(NCc1cccc(F)c1)[C@H](CCC(=O)N1CCN(C2CCCCC2)CC1)N1C(=O)[C@@H](N2C(=O)OC[C@@H]2c2ccccc2)[C@H]1/C=C/c1ccccc1 [Example 38M] | ~10 µM |
| O=C(CC[C@@H](C(=O)N1CCN(C2CCCCC2)CC1)N1C(=O)[C@@H](N2C(=O)OC[C@@H]2c2ccccc2)[C@H]1/C=C/c1ccccc1)NCc1ccc2c(c1)OCO2 [Example 37AC] | < 10 µM |
| O=C(N[C@@H]1CCCc2ccccc21)[C@H](CCC(=O)N1CCN(C2CCCCCC2)CC1)N1C(=O)[C@@H](N2C(=O)OC[C@@H]2c2ccccc2)[C@H]1/C=C/c1ccccc1 [Example 73A] | < 10 µM |
| O=C(CC[C@@H](C(=O)N1CCc2ccccc2C1)N1C(=O)[C@@H](N2C(=O)OC[C@@H]2c2ccccc2)[C@H]1/C=C/c1ccccc1)N1CCN(C2CCCCC2)CC1 [Example 38BM] | < 10 µM |
| O=C(CC[C@@H](C(=O)N1CCN(C2CCCCC2)CC1)N1C(=O)[C@@H](N2C(=O)OC[C@@H]2c2ccccc2)[C@H]1/C=C/c1ccccc1)NCc1ccc(Cl)c(Cl)c1 [Example 37M] | < 10 µM |
| O=C(CC[C@@H](C(=O)N1CCN(C2CCCCC2)CC1)N1C(=O)[C@@H](N2C(=O)OC[C@@H]2c2ccccc2)[C@H]1/C=C/c1ccccc1)NCc1cc(Cl)cc(Cl)c1 [Example 37N] | < 10 µM |
| CC(C)(NC(=O)[C@H](CCC(=O)N1CCN(C2CCCCC2)CC1)N1C(=O)[C@@H](N2C(=O)OC[C@@H]2c2ccccc2)[C@H]1/C=C/c1ccccc1)c1ccccc1 [Example 38AG] | < 10 µM |
| O=C(CC[C@@H](C(=O)N1CCN(C2CCCCC2)CC1)N1C(=O)[C@@H](N2C(=O)OC[C@@H]2c2ccccc2)[C@H]1/C=C/c1ccccc1)N1CCC(Cc2ccccc2)CC1 [Example 37AD] | < 10 µM |

Same assay, conditions: displacement of 3H-CP55940 (1 nM) on CB1 receptors; read-out: IC50

| IC50 | Molecule |
| --- | --- |
| ~10 µM | O=C(CC[C@@H](C(=O)N1CCN(c2ccccc2)CC1)N1C(=O)[C@@H](N2C(=O)OC[C@@H]2c2ccccc2)[C@H]1/C=C/c1ccccc1)NCc1cc(F)cc(C(F)(F)F)c1 [Example 73D] |
| ~10 µM | O=C(N[C@@H]1CCCc2ccccc21)[C@H](CCC(=O)N1CCN(C2CCSCC2)CC1)N1C(=O)[C@@H](N2C(=O)OC[C@@H]2c2ccccc2)[C@H]1/C=C/c1ccccc1 [Example 73B] |
| ~10 µM | C[C@@H](NC(=O)[C@H](CCC(=O)N1CCN(C2CCCCC2)CC1)N1C(=O)[C@@H](N2C(=O)OC[C@@H]2c2cccc(Cl)c2)[C@H]1/C=C/c1ccccc1)c1ccccc1 [Example 73H] |
| ~10 µM | O=C(CC[C@@H](C(=O)N1CCN(CCc2cccs2)CC1)N1C(=O)[C@@H](N2C(=O)OC[C@@H]2c2ccccc2)[C@H]1/C=C/c1ccccc1)NCc1cc(F)cc(C(F)(F)F)c1 [Example 73G] |
| ~10 µM | O=C(CC[C@@H](C(=O)N1CCN(c2ccccn2)CC1)N1C(=O)[C@@H](N2C(=O)OC[C@@H]2c2ccccc2)[C@H]1/C=C/c1ccccc1)NCc1cc(F)cc(C(F)(F)F)c1 [Example 73F] |
| ~10 µM | O=C(NC1CCCc2ccccc21)[C@H](CCC(=O)N1CCN(C2CCCCC2)CC1)N1C(=O)[C@@H](N2C(=O)OC[C@@H]2c2ccccc2)[C@H]1/C=C/c1cccc2ccsc12 (stereo partly drawn) [Example 72A] |

| Molecule | IC50 |
| --- | --- |
| 2(S)-(tert-Butoxycarbonylaminopropyl)-2-[3(S)-(4(S)-phenyloxazolidin-2-on-3-yl)-4(R)-(styr-2-yl)azetidin-2-on-1-yl]acetic acid N-(3-trifluoromethylbenzyl)amide [Example 20Q] | < 10 µM |
